Assay results as given in patent publication US11840686B2, “Modulation of prekallikrein (PKK) expression” (Ionis Pharmaceuticals, Inc., priority 2013, dated 2023).
Strand notation (5' to 3'): a small letter for the sugar, then the base; units joined by * are phosphorothioate-linked, units joined directly phosphodiester-linked; [ ] holds rarer units or linkages, { } end groups; capitals alone tell only the bases. e = 2'-O-(2-methoxyethyl) (MOE); k = constrained ethyl (cEt); [5mC] = 5-methylcytosine; d = 2'-deoxy (DNA)

Tested on: human PKK mRNA
Assay: Antisense inhibition of human PKK mRNA in HepaRG cells, 1,000 nM, MOE/deoxy/cEt oligonucleotides (Example 3)
Type: cell-based
Conditions: Table 21 experiment; HepaRG cells, electroporation with 1,000 nM antisense oligonucleotide, approx. 24 hours; PKK mRNA by RT-PCR (RTS3454), relative to untreated control cells
Description: Additional antisense oligonucleotides were designed targeting a PKK nucleic acid and were tested for their effects on PKK mRNA in vitro.
The chimeric antisense oligonucleotides in the tables below were designed as deoxy, MOE and cEt gapmers. The gapmers are 16 nucleosides in length wherein the nucleoside have either a MOE sugar modification, a cEt sugar modification, or a deoxy modification. The ‘Chemistry’ column describes the sugar modifications of each oligonucleotide. ‘k’ indicates an cEt sugar modification; the number indicates the number of deoxynucleosides; otherwise, indicates a deoxynucleoside; and ‘e’ indicates a 2′-O-methoxyethyl modification. The internucleoside linkages throughout each gapmer are phosphorothioate linkages. All cytosine residues throughout each oligonucleotide are 5-methylcytosines. “Start site” indicates the 5′-most nucleoside to which the gapmer is targeted in the human gene sequence. “Stop site” indicates the 3′-most nucleoside to which the gapmer is targeted in the human gene sequence.
Cultured HepaRG™ cells at a density of 20,000 cells per well were transfected using electroporation with 1,000 nM antisense oligonucleotide. After a treatment period of approximately 24 hours, RNA was isolated from the cells and PKK mRNA levels were measured by quantitative real-time PCR. Human primer probe set RTS3454 was used to measure mRNA levels. ISIS 531231 was also included in this assay. PKK mRNA levels were adjusted according to total RNA content, as measured by RIBOGREEN®. The antisense oligonucleotides were tested in a series of experiments that had similar culture conditions. Results are presented as percent inhibition of PKK, relative to untreated control cells.

Substance	% inhibition
547755 (eT*eA*kA*dA*dA*dA*dT*dG*dA*dA*d[5mC]*dG*dG*kT*k[5mC]*eT; antisense) [compound 547755]	0%
547757 (antisense eG*eA*kG*dT*d[5mC]*dT*d[5mC]*dT*dT*dG*dT*d[5mC]*dA*k[5mC]*kT*eT) [compound 547757]	69%
547759 (antisense eT*eG*kA*dG*dT*d[5mC]*dT*d[5mC]*dT*dT*dG*dT*d[5mC]*kA*k[5mC]*eT) [compound 547759]	73%
547763 (antisense eG*eG*kT*dG*dA*dG*dT*d[5mC]*dT*d[5mC]*dT*dT*dG*kT*k[5mC]*eA) [compound 547763]	66%
547765 (antisense eA*eG*kG*dT*dG*dA*dG*dT*d[5mC]*dT*d[5mC]*dT*dT*kG*kT*e[5mC]) [compound 547765]	20%
547767 (antisense eT*eG*kG*dA*dG*dG*dT*dG*dA*dG*dT*d[5mC]*dT*k[5mC]*kT*eT) [compound 547767]	74%
547771 (antisense e[5mC]*eT*kT*dG*dG*dA*dG*dG*dT*dG*dA*dG*dT*k[5mC]*kT*e[5mC]) [compound 547771]	60%
547773 (antisense eT*e[5mC]*kT*dT*dG*dG*dA*dG*dG*dT*dG*dA*dG*kT*k[5mC]*eT) [compound 547773]	47%
547777 (antisense eT*eT*kG*d[5mC]*dT*dT*d[5mC]*dT*dT*dG*dG*dA*dG*kG*kT*eG) [compound 547777]	69%
547779 (antisense eA*eT*kT*dG*d[5mC]*dT*dT*d[5mC]*dT*dT*dG*dG*dA*kG*kG*eT) [compound 547779]	41%
547781 (antisense e[5mC]*eA*kA*dT*dT*dG*d[5mC]*dT*dT*d[5mC]*dT*dT*dG*kG*kA*eG) [compound 547781]	49%
547783 (antisense e[5mC]*eA*k[5mC]*dA*dA*dT*dT*dG*d[5mC]*dT*dT*d[5mC]*dT*kT*kG*eG) [compound 547783]	48%
547784 (antisense eG*e[5mC]*kT*dT*dG*dA*dA*dT*dA*dA*dA*dA*dT*k[5mC]*kA*eT) [compound 547784]	46%
547785 (antisense eG*eT*kT*dG*d[5mC]*dT*dT*dG*d[5mC]*dT*dT*dG*dA*kA*kT*eA) [compound 547785]	48%
547786 (antisense eA*eG*kT*dT*dG*d[5mC]*dT*dT*dG*d[5mC]*dT*dT*dG*kA*kA*eT) [compound 547786]	44%
547787 (antisense eA*eA*kG*dT*dT*dG*d[5mC]*dT*dT*dG*d[5mC]*dT*dT*kG*kA*eA) [compound 547787]	22%
547788 (antisense eT*eA*kA*dG*dT*dT*dG*d[5mC]*dT*dT*dG*d[5mC]*dT*kT*kG*eA) [compound 547788]	49%
547789 (antisense eG*eA*kA*dA*dT*dA*dA*dG*dT*dT*dG*d[5mC]*dT*kT*kG*e[5mC]) [compound 547789]	20%
547790 (antisense eT*eG*kA*dA*dA*dT*dA*dA*dG*dT*dT*dG*d[5mC]*kT*kT*eG) [compound 547790]	23%
547791 (antisense eA*e[5mC]*kT*dG*dT*dA*dG*d[5mC]*dA*dA*dA*d[5mC]*dA*kA*kG*eG) [compound 547791]	49%
547792 (antisense eT*e[5mC]*k[5mC]*dA*d[5mC]*dA*dG*dG*dA*dA*dA*d[5mC]*dT*kG*kT*eA) [compound 547792]	31%
547793 (antisense eA*eT*k[5mC]*d[5mC]*dA*d[5mC]*dA*dG*dG*dA*dA*dA*d[5mC]*kT*kG*eT) [compound 547793]	16%
547794 (antisense eT*e[5mC]*kA*dT*dA*dG*dA*dG*dT*dT*dG*dA*dG*kT*k[5mC]*eA) [compound 547794]	49%
547795 (antisense eA*e[5mC]*k[5mC]*dT*d[5mC]*dT*dG*dA*dA*dG*dA*dA*dG*kG*k[5mC]*eG) [compound 547795]	66%
547796 (antisense eA*eT*k[5mC]*d[5mC]*d[5mC]*d[5mC]*dA*d[5mC]*d[5mC]*dT*d[5mC]*dT*dG*kA*kA*eG) [compound 547796]	35%
547797 (antisense eA*eG*k[5mC]*dT*dA*d[5mC]*dA*dT*d[5mC]*d[5mC]*d[5mC]*d[5mC]*dA*k[5mC]*k[5mC]*eT) [compound 547797]	33%

Substance	% inhibition
547799 (eG*eA*kA*dG*d[5mC]*dT*dA*d[5mC]*dA*dT*d[5mC]*d[5mC]*d[5mC]*k[5mC]*kA*e[5mC]; antisense) [compound 547799]	41%
547800 (eA*e[5mC]*kA*dT*dG*dG*dA*dA*dG*d[5mC]*dT*dA*d[5mC]*kA*kT*e[5mC]; antisense) [compound 547800]	20%
547801 (eT*eA*k[5mC]*dA*dT*dG*dG*dA*dA*dG*d[5mC]*dT*dA*k[5mC]*kA*eT; antisense) [compound 547801]	11%
547802 (eG*eT*kA*d[5mC]*dA*dT*dG*dG*dA*dA*dG*d[5mC]*dT*kA*k[5mC]*eA; antisense) [compound 547802]	41%
547803 (eT*eG*kT*dA*d[5mC]*dA*dT*dG*dG*dA*dA*dG*d[5mC]*kT*kA*e[5mC]; antisense) [compound 547803]	0%
547804 (eG*eT*kG*dT*dA*d[5mC]*dA*dT*dG*dG*dA*dA*dG*k[5mC]*kT*eA; antisense) [compound 547804]	22%
547805 (eG*eG*kG*dT*dG*dT*dA*d[5mC]*dA*dT*dG*dG*dA*kA*kG*e[5mC]; antisense) [compound 547805]	54%
547809 (eT*e[5mC]*kA*dT*d[5mC]*dT*dG*dG*d[5mC]*dA*dG*dT*dA*kT*kT*eG; antisense) [compound 547809]	33%
547810 (e[5mC]*e[5mC]*kT*d[5mC]*dA*dT*d[5mC]*dT*dG*dG*d[5mC]*dA*dG*kT*kA*eT; antisense) [compound 547810]	60%
547811 (eA*e[5mC]*k[5mC]*dT*d[5mC]*dA*dT*d[5mC]*dT*dG*dG*d[5mC]*dA*kG*kT*eA; antisense) [compound 547811]	49%
547812 (eG*eT*kG*d[5mC]*dA*d[5mC]*d[5mC]*dT*d[5mC]*dA*dT*d[5mC]*dT*kG*kG*e[5mC]; antisense) [compound 547812]	51%
547813 (eG*eG*kT*dG*dG*dA*dA*dT*dG*dT*dG*d[5mC]*dA*k[5mC]*k[5mC]*eT; antisense) [compound 547813]	34%
547814 (eG*eG*kG*dT*dG*dG*dA*dA*dT*dG*dT*dG*d[5mC]*kA*k[5mC]*e[5mC]; antisense) [compound 547814]	60%
547815 (eA*eA*k[5mC]*dT*dT*dG*d[5mC]*dT*dG*dG*dA*dA*dG*kA*kA*eA; antisense) [compound 547815]	3%
547816 (eG*eA*kA*d[5mC]*dT*dT*dG*d[5mC]*dT*dG*dG*dA*dA*kG*kA*eA; antisense) [compound 547816]	45%
547817 (eT*eG*kA*dA*d[5mC]*dT*dT*dG*d[5mC]*dT*dG*dG*dA*kA*kG*eA; antisense) [compound 547817]	18%
547818 (eG*eA*kT*dT*dG*dA*dA*d[5mC]*dT*dT*dG*d[5mC]*dT*kG*kG*eA; antisense) [compound 547818]	4%
547819 (e[5mC]*eA*kT*dT*dG*dA*dT*dT*dG*dA*dA*d[5mC]*dT*kT*kG*e[5mC]; antisense) [compound 547819]	11%
547820 (eT*e[5mC]*kA*dT*dT*dG*dA*dT*dT*dG*dA*dA*d[5mC]*kT*kT*eG; antisense) [compound 547820]	0%
547821 (e[5mC]*eA*kA*dA*d[5mC]*d[5mC]*dT*dT*dT*dT*d[5mC]*dT*d[5mC]*k[5mC]*kA*eT; antisense) [compound 547821]	44%
547822 (eG*e[5mC]*kA*dA*d[5mC]*d[5mC]*dA*dA*dA*d[5mC]*d[5mC]*dT*dT*kT*kT*e[5mC]; antisense) [compound 547822]	71%
547823 (eA*eG*k[5mC]*dA*dA*d[5mC]*d[5mC]*dA*dA*dA*d[5mC]*d[5mC]*dT*kT*kT*eT; antisense) [compound 547823]	51%
547825 (eT*e[5mC]*kG*dA*dT*dG*dT*dA*d[5mC]*dT*dT*dT*dT*kG*kG*e[5mC]; antisense) [compound 547825]	59%
547826 (eT*eT*k[5mC]*dG*dA*dT*dG*dT*dA*d[5mC]*dT*dT*dT*kT*kG*eG; antisense) [compound 547826]	31%
547827 (eG*eT*kT*d[5mC]*dG*dA*dT*dG*dT*dA*d[5mC]*dT*dT*kT*kT*eG; antisense) [compound 547827]	47%
